Results taken from US4172896A, “Methane-sulfonamide derivatives, the preparation thereof and composition comprising the same” (Dainippon Pharmaceutical Co., Ltd., priority 1978, dated 1979).

How the values were obtained:
[1] = Anti-maximal electroshock seizure activity in mice; format: in vivo, mice (male, STD-ddY strain); details: Mus musculus, oral, MES 60 Hz 25 mA 0.2 s, at peak effect time
Excerpt: Male mice of STD-ddY strain were used. The test compounds were orally administered to the test animals (each group: 10 mice) in the form of a homogeneous suspension in a 0.5% tragacanth solution.
Maximal electroshock seizures (MES) were induced by the method of Swinyard [cf. J. Amer. Pharm. Assoc., Vol. 38, page 201 (1949)]. The animals were subjected to 60 Hz current of 25 mA for 0.2 second delivered through corneal electrodes after administration of the test compounds. […] J. Pharmacol. Exp. Ther., Vol. 96, page 99 (1947)].

[2] = Effect on coordinated motor movements in mice (rotarod); details: for selectivity ratio / TD50: mouse, in vivo, po; for NTD50 (median neurotoxic dose): oral, mice, rotarod, at peak effect time
Experimental: Mice trained to continue coordinated motor movements for 100 seconds or more on a rotarod apparatus (2.5 cm in diameter at 11 RPM) were used [J. Amer. Pharm. […] Impairment of coordinated motor movements was defined as the inability of the animals to retain on the rotarod for a 100 second test period. After oral administration of the test compounds rotarod performance was tested at intervals of 1 hour for 6 hours. Median neurotoxic dose (NTD50), i.e. the does which causes fall from rotarod in 50% of animals, was calculated by the method of Litchfield and Wilcoxon.

in vivo = details: mouse; for LD50 at 168 h: mortality observed for 7 days; for selectivity ratio: read-out: Safety index
Excerpt: Male mice of STD-ddY strain weighing 20-22 g were used. The test compounds were orally administered to the test animals (each group: 10 mice) in the form of a homogeneous suspension in 0.5% tragacanth solution.

SMILES	ED50 [1] [mg/kg]	further results
CCNS(=O)(=O)Cc1noc2ccc(Cl)cc12 [compound 8]	21.3	–
CC(C)NS(=O)(=O)Cc1noc2ccc(Br)cc12 [compound 17]	22.3	–
CNS(=O)(=O)Cc1noc2ccccc12 [compound 2]	22.3	–
NS(=O)(=O)Cc1noc2ccccc12 [compound 1]	19.6	selectivity ratio [2]: 14.9; NTD50 (median neurotoxic dose) [2]: 292 mg/kg, p.o; LD50 at 168 h (in vivo; oral, mice): 1830 mg/kg; selectivity ratio (in vivo; po): 93.3
CCNS(=O)(=O)Cc1noc2ccccc12 [Test compound 3]	38.9	–
NS(=O)(=O)Cc1noc2ccc(F)cc12 [Test compound 10, 5-Fluoro-3-sulfamoylmethyl-1,2-benzisoxazole]	–	selectivity ratio [2]: 10.6; NTD50 (median neurotoxic dose) [2]: 154 mg/kg, p.o; selectivity ratio (in vivo; LD50/ED50 of anti-MES, mice, oral): 86.7; LD50 at 168 h (in vivo; oral, mice): 1260 mg/kg
CCCNS(=O)(=O)Cc1nc2ccccc2o1 [compound 22]	31.2	–
CCC1(c2ccccc2)C(=O)NCNC1=O [Primidone, 5-ethyl-5-phenylhexahydropyrimidine-4,6-dione, reference compound]	21.7	–
NC(=O)NC(=O)Cc1ccccc1 [Phenacemide, phenylacetylurea, reference compound]	61.2	–
NC(=O)N1c2ccccc2C=Cc2ccccc21 [Carbamazepine, 5H-dibenz[b,f]azepine-5-carboxamide, reference compound]	13.2	TD50 [2]: 141 mg/kg; selectivity ratio [2]: 10.7; LD50 at 168 h (in vivo; oral, mice): 1700 mg/kg; selectivity ratio (in vivo; po): 129
O=C1NC(=O)C(c2ccccc2)(c2ccccc2)N1 [Diphenylhydantoin, 5,5-diphenyl-2,4-imidazolidinedione, reference compound]	7.6	TD50 [2]: 72 mg/kg
CNS(=O)(=O)Cc1noc2ccc(Cl)cc12 [Test compound 7]	~20	–
NS(=O)(=O)Cc1noc2cc(F)ccc12 [compound 18]	18.9	–
CNS(=O)(=O)Cc1noc2ccc(Br)cc12 [compound 15]	15	–
CNS(=O)(=O)Cc1noc2ccc(F)cc12 [compound 11]	34.5	–
CN(C)S(=O)(=O)Cc1noc2ccc(F)cc12 [compound 13]	32	–
CN(C)S(=O)(=O)Cc1nc2ccccc2o1 [compound 21]	34	–
NS(=O)(=O)Cc1noc2ccc(Br)cc12 [compound 14]	13.5	–
CNS(=O)(=O)Cc1nc2ccccc2o1 [compound 20]	17.2	–
NS(=O)(=O)Cc1nc2cc(Cl)ccc2o1 [compound 23]	30.3	–
CN(C)S(=O)(=O)Cc1noc2ccccc12 [compound 5]	37.2	–
NS(=O)(=O)Cc1nc2ccccc2o1 [compound 19]	12	TD50 [2]: 168 mg/kg; selectivity ratio [2]: 14; LD50 at 168 h (in vivo; oral, mice): ~1800 mg/kg
CCNS(=O)(=O)Cc1noc2ccc(F)cc12 [compound 12]	31.6	–
CCNS(=O)(=O)Cc1noc2ccc(Br)cc12 [compound 16]	18.3	–
CN(C)S(=O)(=O)Cc1noc2ccc(Cl)cc12 [compound 9]	56.2	–
CC(C)NS(=O)(=O)Cc1noc2ccccc12 [Test compound 4]	56	–
NS(=O)(=O)Cc1noc2ccc(Cl)cc12 [compound 6]	14.2	–
